One may read the EC50 as the concentration giving half of the maximal effect.

The experiment relates to SARS-CoV-2 replicon. It is filed as cell-based. To be noted: read-out: SARS-CoV-2 Replicon (Huh-7cell) EC50. (In antiviral work, replicon cells carry a viral genome segment that copies itself.)

As for `CCC(CC)COC(=O)C1(N[P@](=O)(OCOC(=O)OC(C)C)OC[C@H]2O[C@@](C#N)(c3ccc4c(N)ncnn34)[C@H](OC(=O)C(C)C)[C@@H]2OC(=O)C(C)C)CCC1` [Compound 32a, (2R,3R,4R,5R)-2-(4-aminopyrrolo[2,1-f][1,2,4]triazin-7-yl)-2-cyano-5-((((R)-((1-((2-ethylbutoxy)carbonyl)cyclobutyl)amino)(((isopropoxycarbonyl)oxy)methoxy)phosphoryl)oxy)methyl)tetrahydrofuran-3,4-diyl bis(2-methylpropionate)], the EC50 was in the range of 10 to 50 nM.

As for `CCC(=O)O[C@H]1[C@@H](OC(=O)CC)[C@](C#N)(c2ccc3c(N)ncnn23)O[C@@H]1CO[P@](=O)(N[C@@H](C)C(=O)OCC(CC)CC)OCOC(=O)C(C)(C)C` [Compound 10a, (2R,3R,4R,5R)-2-(4-aminopyrrolo[2,1-f][1,2,4]triazin-7-yl)-2-cyano-5-((((R)-(((S)-1-(2-ethylbutoxy)-1-oxopropan-2-yl)amino)((pivaloyloxy)methoxy)phosphoryl)oxy)methyl)tetrahydrofuran-3,4-diyl dipropionate], the concentration for a half-maximal effect (EC50) is 10 to 50 nM. “(2R,3R,4R,5R)-2-(4-aminopyrrolo[2,1-f][1,2,4]triazin-7-yl)-2-cyano-5-((((R)-(((S)-1-isopropoxy-1-oxopropan-2-yl)amino)(((isopropoxycarbonyl)oxy)methoxy)phosphoryl)oxy)methyl)tetrahydrofuran-3,4-diyl diacetate [Compound 1a]”: the EC50 was in the range of 10 to 50 nM.

Take `CCC(CC)COC(=O)[C@H](C)N[P@@](=O)(OCOC(=O)C(C)(C)C)OC[C@H]1O[C@@](C#N)(c2ccc3c(N)ncnn23)[C@H](OC(=O)C(C)(C)C)[C@@H]1OC(=O)C(C)(C)C` [Compound 12b, (2R,3R,4R,5R)-2-(4-aminopyrrolo[2,1-f][1,2,4]triazin-7-yl)-2-cyano-5-((((S)-(((S)-1-(2-ethylbutoxy)-1-oxopropan-2-yl)amino)((pivaloyloxy)methoxy)phosphoryl)oxy)methyl)tetrahydrofuran-3,4-diyl bis(2,2-dimethylpropionate)]: the EC50 was 50 to 500 nM.

As to “(2R,3R,4R,5R)-2-(4-aminopyrrolo[2,1-f][1,2,4]triazin-7-yl)-5-((((bis(((isopropoxycarbonyl)oxy)methoxy))phosphoryl)oxy)methyl)-2-cyanotetrahydrofuran-3,4-diyldiisopropyl bis(carbonate) [Compound 28]”, the EC50 lay in the range of 10 to 50 nM.

Regarding “(2R,3R,4R,5R)-2-(4-aminopyrrolo[2,1-f][1,2,4]triazin-7-yl)-2-cyano-5-((((S)-(((S)-1-(2-ethylbutoxy)-1-oxopropan-2-yl)amino)(((isopropoxycarbonyl)oxy)methoxy)phosphoryl)oxy)methyl)tetrahydrofuran-3,4-diyl diacetate [Compound 5b]”, the EC50 fell in the range of 5 to 10 nM. The figure for `CCC(=O)O[C@H]1[C@@H](OC(=O)CC)[C@](C#N)(c2ccc3c(N)ncnn23)O[C@@H]1CO[P@@](=O)(N[C@@H](C)C(=O)OC(C)C)OCOC(=O)OC(C)C` [Compound 2b, (2R,3R,4R,5R)-2-(4-aminopyrrolo[2,1-f][1,2,4]triazin-7-yl)-2-cyano-5-((((S)-(((S)-1-isopropoxy-1-oxopropan-2-yl)amino)(((isopropoxycarbonyl)oxy)methoxy)phosphoryl)oxy)methyl)tetrahydrofuran-3,4-diyl dipropionate] is no more than 5 nM; for `CCCCCOC(=O)C[C@H](N[P@](=O)(OC[C@H]1O[C@@](C#N)(c2ccc3c(N)ncnn23)[C@H](OC(=O)C(C)C)[C@@H]1OC(=O)C(C)C)Oc1ccc(C(C)(C)C)cc1)C(=O)OCCCCC` [Compound 39b, (2R,3R,4R,5R)-2-(4-aminopyrrolo[2,1-f][1,2,4]triazin-7-yl)-2-cyano-5-((((S)-(((S)-1,4-dipentyloxy-1,4-dioxobutan-2-yl)amino)(4-tert-butylphenoxy)phosphoryl)oxy)methyl)tetrahydrofuran-3,4-diyl bis(2-methylpropionate)] it is 10 to 50 nM; for `CCCCCCCCCCCCCCCCOCCCOP(=O)(OCOC(=O)OC(C)C)OC[C@H]1O[C@@](C#N)(c2ccc3c(N)ncnn23)[C@H](OC(=O)C(C)C)[C@@H]1OC(=O)C(C)C` (mixture of isomers) [Compound 36, (2R,3R,4R,5R)-2-(4-aminopyrrolo[2,1-f][1,2,4]triazin-7-yl)-2-cyano-5-((((3-(hexadecyloxy)propoxy)(((isopropoxycarbonyl)oxy)methoxy)phosphoryl)oxy)methyl)tetr ahydrofuran-3,4-diyl bis(2-methylpropionate)] it is 50 to 500 nM.

For the compound `CCC(=O)O[C@H]1[C@@H](OC(=O)CC)[C@](C#N)(c2ccc3c(N)ncnn23)O[C@@H]1COP(=O)(OCOC(=O)OC(C)C)OCOC(=O)OC(C)C` [Compound 18, (2R,3R,4R,5R)-2-(4-aminopyrrolo[2,1-f][1,2,4]triazin-7-yl)-5-((((bis(((isopropoxycarbonyl)oxy)methoxy))phosphoryl)oxy)methyl)-2-cyanotetrahydrofuran-3,4-diyl dipropionate], the EC50 is less than 5 nM. To `CCCCC/C=C\C/C=C\CCCCCCCCOC(=O)[C@H](C)NP(=O)(OCOC(=O)C(C)(C)C)OC[C@H]1O[C@@](C#N)(c2ccc3c(N)ncnn23)[C@H](OC(=O)C(C)C)[C@@H]1OC(=O)C(C)C` (stereo partly drawn) [Compound 51, (2R,3R,4R,5R)-2-(4-aminopyrrolo[2,1-f][1,2,4]triazin-7-yl)-2-cyano-5-((((((S)-1-(((9Z,12Z)-octadeca-9,12-dien-1-yl)oxy)-1-oxopropan-2-yl)amino)((pivaloyloxy)methoxy)phosphoryl)oxy)methyl)tetrahydrofuran-3,4-diyl bis(2-methylpropionate)] belongs 50 to 500 nM.

For the compound `CCC(CC)COC(=O)[C@H](C)N[P@](=O)(OCOC(=O)C(C)(C)C)OC[C@H]1O[C@@](C#N)(c2ccc3c(N)ncnn23)[C@H](OC(C)=O)[C@@H]1OC(C)=O` [Compound 9a, (2R,3R,4R,5R)-2-(4-aminopyrrolo[2,1-f][1,2,4]triazin-7-yl)-2-cyano-5-((((R)-(((S)-1-(2-ethylbutoxy)-1-oxopropan-2-yl)amino)((pivaloyloxy)methoxy)phosphoryl)oxy)methyl)tetrahydrofuran-3,4-diyl diacetate], the EC50 fell in the range of 5 to 10 nM. To `CC(C)C(=O)O[C@H]1[C@@H](OC(=O)C(C)C)[C@](C#N)(c2ccc3c(N)ncnn23)O[C@@H]1CO[P@@](=O)(OCOC(=O)C(C)(C)C)Oc1ccc(C(C)(C)C)cc1` [Compound 44b, (2R,3R,4R,5R)-2-(4-aminopyrrolo[2,1-f][1,2,4]triazin-7-yl)-5-(((((R)-4-tert-butylphenoxy)(((tert-butylcarbonyl)oxy)methoxy)phosphoryl)oxy)methyl)-2-cyanotetrahydrofuran-3,4-diyl bis(2-methylpropionate)] belongs 10 to 50 nM. The figure for `CCC(=O)O[C@H]1[C@@H](OC(=O)CC)[C@](C#N)(c2ccc3c(N)ncnn23)O[C@@H]1CO[P@@](=O)(OCOC(=O)OC(C)C)Oc1ccc(C(C)(C)C)cc1` [Compound 23b, ((2R,3R,4R,5R)-2-(4-aminopyrrolo[2,1-f][1,2,4]triazin-7-yl)-5-((((R)-(4-tert-butylphenoxy)(((isopropoxycarbonyl)oxy)methoxy)phosphoryl)oxy)methyl)-2-cyanotetrahydrofuran-3,4-diyl dipropionate] is 5 to 10 nM.

For the origin of these results see EP4617278A1, “NUCLEOTIDE ANALOG, AND COMPOSITION AND USE THEREOF” (priority 2022, dated 2024).
